The values that follow come from patent publication US20110065782A1, “METHODS OF IDENTIFYING COMPOUNDS THAT INHIBIT THE ACTIVATION OF A BIOMOLECULE AND METHODS OF TREATMENT USING THE COMPOUNDS” (priority 2009, published 2011).

Test [1] addresses T1, adenylate cyclase toxin (CyaA) (Bordetella pertussis, UniProt P0DKX7).
T1 construct: made in house
The test can be described thus: Colorimetric adenylate cyclase enzymatic assay on CyaA. In kind it is biochemical. The settings on record: concentration not given.

Test [2] concerns the target preformed EF-CaM complex (Bacillus anthracis, UniProt P40136). In kind it is biochemical.
For test [3], the target named is Edema Factor (EF) (Bacillus anthracis, UniProt P40136). The test can be described thus: biochemical. In kind it is biochemical.
Edema Factor (EF), sequence (P40136 34-800 limits assumed): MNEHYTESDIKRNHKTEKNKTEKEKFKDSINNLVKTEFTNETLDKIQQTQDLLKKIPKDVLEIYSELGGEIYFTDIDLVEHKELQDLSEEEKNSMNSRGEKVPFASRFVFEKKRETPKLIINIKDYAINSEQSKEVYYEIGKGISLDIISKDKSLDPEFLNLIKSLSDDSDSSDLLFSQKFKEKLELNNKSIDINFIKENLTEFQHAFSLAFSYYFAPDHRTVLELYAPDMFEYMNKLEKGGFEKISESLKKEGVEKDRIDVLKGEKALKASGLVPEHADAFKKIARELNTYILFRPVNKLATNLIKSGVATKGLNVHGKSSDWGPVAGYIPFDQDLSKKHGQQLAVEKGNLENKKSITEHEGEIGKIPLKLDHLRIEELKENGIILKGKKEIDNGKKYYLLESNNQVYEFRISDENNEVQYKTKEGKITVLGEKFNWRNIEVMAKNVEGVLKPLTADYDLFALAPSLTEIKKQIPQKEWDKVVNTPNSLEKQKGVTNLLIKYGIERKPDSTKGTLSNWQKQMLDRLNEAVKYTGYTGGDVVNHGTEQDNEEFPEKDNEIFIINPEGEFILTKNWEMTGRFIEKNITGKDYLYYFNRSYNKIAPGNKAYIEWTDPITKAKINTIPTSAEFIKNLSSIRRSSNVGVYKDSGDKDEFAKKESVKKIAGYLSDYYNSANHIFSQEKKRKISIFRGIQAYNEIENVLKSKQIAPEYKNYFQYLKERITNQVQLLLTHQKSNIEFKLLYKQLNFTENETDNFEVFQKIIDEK
Test [4] concerns the target T2, calmodulin (CaM) (Homo sapiens, UniProt P0DP23).
T2 construct: made in house
The test can be described thus: CaM binding of peptide P233-254 probed by steady-state tryptophan anisotropy fluorescence. The following applies: 10 μM TUAdiCl; for fluorescence anisotropy (r) of P233-254 peptide: peptide 2 μM, calcium present.

The structures appear in SMILES notation.

T1 sequence (P0DKX7 whole entry, looked up): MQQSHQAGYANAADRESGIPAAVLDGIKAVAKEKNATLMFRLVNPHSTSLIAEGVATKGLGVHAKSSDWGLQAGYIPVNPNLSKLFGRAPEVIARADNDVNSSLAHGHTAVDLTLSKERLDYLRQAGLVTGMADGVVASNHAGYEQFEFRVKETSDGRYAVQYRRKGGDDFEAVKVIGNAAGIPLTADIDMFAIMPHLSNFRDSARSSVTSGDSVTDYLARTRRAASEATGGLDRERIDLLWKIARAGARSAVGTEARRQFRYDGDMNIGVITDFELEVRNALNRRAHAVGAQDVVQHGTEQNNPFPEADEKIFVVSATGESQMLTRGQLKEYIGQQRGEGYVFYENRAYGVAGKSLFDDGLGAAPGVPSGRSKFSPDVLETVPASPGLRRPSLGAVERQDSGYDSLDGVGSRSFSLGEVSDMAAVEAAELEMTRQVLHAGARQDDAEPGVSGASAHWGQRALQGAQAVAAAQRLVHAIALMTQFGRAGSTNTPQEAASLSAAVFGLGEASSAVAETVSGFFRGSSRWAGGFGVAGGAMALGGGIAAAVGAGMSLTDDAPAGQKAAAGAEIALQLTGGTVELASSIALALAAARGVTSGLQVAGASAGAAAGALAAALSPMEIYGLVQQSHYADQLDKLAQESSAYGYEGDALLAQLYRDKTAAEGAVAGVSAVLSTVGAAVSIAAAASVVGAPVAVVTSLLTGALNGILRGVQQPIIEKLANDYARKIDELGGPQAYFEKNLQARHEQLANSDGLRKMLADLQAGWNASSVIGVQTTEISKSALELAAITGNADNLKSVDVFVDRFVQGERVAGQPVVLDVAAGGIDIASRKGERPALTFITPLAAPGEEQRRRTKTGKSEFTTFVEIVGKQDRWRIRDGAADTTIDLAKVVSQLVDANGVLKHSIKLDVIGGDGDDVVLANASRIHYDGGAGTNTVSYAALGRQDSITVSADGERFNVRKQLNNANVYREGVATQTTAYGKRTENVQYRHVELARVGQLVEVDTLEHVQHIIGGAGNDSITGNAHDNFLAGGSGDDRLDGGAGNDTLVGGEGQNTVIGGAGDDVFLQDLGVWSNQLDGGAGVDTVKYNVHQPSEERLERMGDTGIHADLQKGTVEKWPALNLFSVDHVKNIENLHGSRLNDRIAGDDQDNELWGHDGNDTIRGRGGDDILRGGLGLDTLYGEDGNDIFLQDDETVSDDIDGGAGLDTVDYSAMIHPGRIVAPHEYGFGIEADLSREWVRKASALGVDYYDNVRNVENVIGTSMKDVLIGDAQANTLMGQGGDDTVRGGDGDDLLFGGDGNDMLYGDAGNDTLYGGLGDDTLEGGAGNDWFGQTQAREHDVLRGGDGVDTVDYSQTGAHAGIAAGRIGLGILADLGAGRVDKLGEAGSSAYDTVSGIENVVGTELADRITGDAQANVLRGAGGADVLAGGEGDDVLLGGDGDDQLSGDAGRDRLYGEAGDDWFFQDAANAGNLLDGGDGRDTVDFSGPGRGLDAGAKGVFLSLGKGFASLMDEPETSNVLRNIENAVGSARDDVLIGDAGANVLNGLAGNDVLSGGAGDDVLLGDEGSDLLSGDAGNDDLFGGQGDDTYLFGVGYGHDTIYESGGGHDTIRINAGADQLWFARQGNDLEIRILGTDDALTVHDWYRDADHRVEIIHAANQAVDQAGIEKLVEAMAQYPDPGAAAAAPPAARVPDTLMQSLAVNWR
preformed EF-CaM complex, sequence (P40136 whole entry, looked up, one chain of several): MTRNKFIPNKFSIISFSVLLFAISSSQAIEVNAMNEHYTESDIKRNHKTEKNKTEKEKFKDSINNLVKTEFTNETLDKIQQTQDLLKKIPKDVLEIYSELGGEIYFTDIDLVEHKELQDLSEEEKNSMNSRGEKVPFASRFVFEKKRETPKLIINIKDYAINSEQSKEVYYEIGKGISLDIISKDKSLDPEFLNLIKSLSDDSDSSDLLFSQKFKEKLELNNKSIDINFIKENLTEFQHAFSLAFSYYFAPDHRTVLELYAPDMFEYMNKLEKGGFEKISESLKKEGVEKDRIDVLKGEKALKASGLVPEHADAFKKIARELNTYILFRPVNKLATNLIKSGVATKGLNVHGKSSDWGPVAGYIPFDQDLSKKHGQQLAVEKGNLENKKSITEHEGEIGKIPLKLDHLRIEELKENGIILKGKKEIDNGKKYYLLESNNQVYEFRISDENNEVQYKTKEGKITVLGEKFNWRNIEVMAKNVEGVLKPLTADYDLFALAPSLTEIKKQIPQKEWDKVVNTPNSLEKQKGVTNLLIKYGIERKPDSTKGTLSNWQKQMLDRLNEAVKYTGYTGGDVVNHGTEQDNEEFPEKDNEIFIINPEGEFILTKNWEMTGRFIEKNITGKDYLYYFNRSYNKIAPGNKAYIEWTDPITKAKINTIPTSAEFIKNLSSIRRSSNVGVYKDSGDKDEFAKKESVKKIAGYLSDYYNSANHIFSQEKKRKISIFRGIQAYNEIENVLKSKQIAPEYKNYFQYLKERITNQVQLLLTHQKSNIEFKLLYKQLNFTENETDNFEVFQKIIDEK

Consider `O=C(Nc1ccc(Cl)c(Cl)c1)Nc1cc(-c2ccccc2)sc1C(=O)O` [drawing 10], for which the “inhibition of CyaA activity” value in test [1] is listed as “inhibit CyaA activity”.

For `O=C(Nc1ccc(Cl)c(Cl)c1)Nc1cc(-c2ccccc2)sc1C(=O)O` [TUAdiCl], in test [2], the “inhibition of enzymatic activity of the preformed EF-CaM complex” value was “significantly inhibit”. Besides, in test [3], the IC50 (as a rule, the midpoint of a concentration-inhibition curve) was in the range of 2 to 3 µM; the “concentration at which EF activity is inhibited” value is on record as “less than 10 μM”; the inhibition (as a rule, the drop in the measured response relative to a control, in per cent) at 100 µM came to 98 ± 6%. In test [3] (read-out: inhibition of EF enzymatic activity), the inhibition at 10 µM was > 80%. Moreover, the “effect on the ability of CaM to associate with CaM-binding peptide from CyaA” value in test [4] is recorded as “no effect”. The “fluorescence anisotropy (r) of P233-254 peptide” value in test [4] (with equimolar CaM) is 0.095. In addition, the “fluorescence anisotropy (r) of P233-254 peptide” value in test [4] (without CaM) is given as 0.027.
